Tests used:
[1] = Induction of chondrogenesis in human MSC assessed as maximum activity at 300 nM incubated for 6 days by rhodamine B and Nile red staining based imaging analysis relative to control; assay type: functional; details: BMMSC, 144 h, time 6 day
[2] = Effect on Wnt signaling pathway in human SW480 cells harbouring TCF/LEF luciferase reporter gene and SP5-Luc reporter gene incubated for 36 to 48 hrs by luminescence assay; assay type: cell-based
[3] = molecular target: Dual specificity tyrosine-phosphorylation-regulated kinase 1A (Homo sapiens, UniProt Q13627); assay: Inhibition of recombinant DYRK1A (unknown origin) using Ser/Thr 18 peptide as substrate incubated for 1 hr in presence of ATP by FRET assay
[4] = Induction of chondrogenesis in human MSC assessed as maximum activity at 100 nM incubated for 6 days by rhodamine B and Nile red staining based imaging analysis relative to control; assay type: functional; details: BMMSC, 144 h, time 6 day
[5] = Induction of chondrogenesis in human MSC assessed as incubated for 6 days by rhodamine B and Nile red staining based imaging analysis; assay type: functional; details: bmmsc
[6] = Inhibition of IL1-beta induced MMP3 expression levels in human chondrocytes assessed as MMP3 levels incubated for 2hrs followed by IL1-beta stimulation and measured after overnight incubation by LANCE assay; assay type: functional, cell-based; details: Chondrocyte

Row | Structure (SMILES) | EC50 [2] [nM] | EC50 [3] [nM] | EC50 [5] [nM] | EC50 [6] [nM] | Emax at 0.3 µM [1] [%] | Emax at 0.1 µM [4] [%]
1 | CN1CCN(c2nccc3[nH]c(-c4n[nH]c5ccc(-c6cncc(CN7CCCC7)c6)cc45)cc23)CC1 | 9380 | 48 | – | – | 31 | –
2 | CC(C)CC(=O)Nc1cncc(-c2ccc3[nH]nc(-c4cc5c(-c6ccccc6F)nccc5[nH]4)c3n2)c1 | 605 | 23 | – | – | 36.3 | –
3 | Cc1ccncc1-c1cnc2[nH]nc(-c3cc4c(-c5cccnc5)cncc4[nH]3)c2c1 | 2250 | 17 | – | – | 17.4 | –
4 | CN(C)Cc1cncc(-c2ccc3[nH]nc(-c4cc5c(-c6ccncc6)cncc5[nH]4)c3c2)c1 | 1060 | 27 | – | – | 17.8 | –
5 | c1ncc(-c2ccc3[nH]nc(-c4cc5c(N6CCCCC6)cncc5[nH]4)c3c2)cc1CN1CCCC1 | 1840 | 24 | – | – | 24.7 | –
6 | c1cncc(-c2ccnc3[nH]c(-c4n[nH]c5ncc(-c6cncc(CN7CCCCC7)c6)cc45)cc23)c1 | > 10000 | 15 | – | – | 43.9 | –
7 | CC(C)(C)CC(=O)Nc1cncc(-c2cnc3[nH]nc(-c4cc5cnccc5[nH]4)c3c2)c1 | 605 | 2 | – | – | 7.07 | –
8 | O=C(Nc1cncc(-c2cnc3[nH]nc(-c4cc5c(-c6cccnc6)cccc5[nH]4)c3c2)c1)C1CCC1 | 202 | 25 | – | – | 41.3 | –
9 | CN(C)Cc1cncc(-c2ccc3[nH]nc(-c4cc5c(-c6cccc(F)c6)nccc5[nH]4)c3c2)c1 | 2940 | 93 | – | – | 42 | –
10 | O=C1COc2cccc(c2)-c2cncc3[nH]c(nc23)-c2n[nH]c3ccc(cc23)-c2cncc(c2)N1 | 86.8 | – | 100 | 37.4 | – | 185
11 | CC(C)Nc1cncc(-c2ccc3[nH]nc(-c4cc5c(-c6cccnc6)ccnc5[nH]4)c3c2)c1 | > 10000 | 20 | – | – | 45.5 | –
12 | CCNCc1cncc(-c2cnc3[nH]nc(-c4cc5c(-c6cc(F)cc(CNS(C)(=O)=O)c6)cncc5[nH]4)c3c2)c1 | > 10000 | 6 | – | 3000 | – | 42.8
13 | CC(C)C(=O)Nc1cncc(-c2cc3c(-c4cc5c(-c6cccc(F)c6)cncc5[nH]4)n[nH]c3cn2)c1 | 1730 | 65 | – | – | 42.2 | –
14 | CN1CCN(c2ccnc3[nH]c(-c4n[nH]c5ncc(-c6cn[nH]c6)cc45)cc23)CC1 | > 10000 | 35 | – | – | 20.1 | –
15 | Nc1cncc(-c2cc3c(-c4cc5c(-c6ccccc6F)cncc5[nH]4)n[nH]c3cn2)c1 | 1630 | 40 | – | – | 15.5 | –
16 | CC(C)(C)C(=O)Nc1cncc(-c2cnc3[nH]nc(-c4cc5c(-c6ccncc6)cncc5[nH]4)c3c2)c1 | > 10000 | 5 | – | – | 33.6 | –
17 | O=C(Nc1cncc(-c2cnc3[nH]nc(-c4nc5c(-c6cccc(F)c6)cncc5[nH]4)c3c2)c1)N1CCOCC1 | 9 | 14 | – | – | 96.8 | –
18 | Nc1cncc(-c2cc3c(-c4cc5c(N6CCCCC6)cncc5[nH]4)n[nH]c3cn2)c1 | 2960 | 6 | 30 | – | – | 93.5
19 | CCCCC(=O)Nc1cncc(-c2cnc3[nH]nc(-c4cc5c(-c6ccncc6)cncc5[nH]4)c3c2)c1 | > 10000 | 17 | 10 | – | – | 70.4
20 | CCC(=O)Nc1cncc(-c2cnc3[nH]nc(-c4cc5c(-c6cccc(F)c6)cncc5[nH]4)c3c2)c1 | 246 | 13 | 10 | – | – | 113
21 | Cc1ncc(-c2ccc3[nH]nc(-c4nc5c(-c6cccc(F)c6)cccc5[nH]4)c3n2)n1C | 150 | 80 | 10 | – | – | 112
22 | Cc1cn(-c2nccc3[nH]c(-c4n[nH]c5ccc(-c6cncc(NC(=O)CC(C)C)c6)nc45)nc23)cn1 | 2900 | 28 | 30 | – | – | 69.3
23 | CN(C)CCOc1cncc(-c2ccc3[nH]nc(-c4nc5c(-c6cccs6)cccc5[nH]4)c3n2)c1 | 3110 | 41 | 10 | – | – | 142
24 | O=C(Cc1ccccc1)Nc1cncc(-c2ccc3[nH]nc(-c4nc5c(-c6cccc(F)c6)cncc5[nH]4)c3c2)c1 | 23 | 24 | 100 | – | – | 124
25 | Cc1ccncc1-c1cc2c(-c3cc4cnccc4[nH]3)n[nH]c2cn1 | 389 | 11 | 10 | – | – | 61.4
26 | CC(C)Nc1cncc(-c2cnc3[nH]nc(-c4nc5c(-c6cccc(F)c6)cncc5[nH]4)c3c2)c1 | 1.2 | 20 | 30 | – | – | 504
27 | c1cncc(-c2cc3c(-c4cc5c(-c6cccnc6)cncc5[nH]4)n[nH]c3cn2)c1 | 1340 | 17 | 100 | – | – | 76.4
28 | CC(C)Nc1cncc(-c2ccc3[nH]nc(-c4nc5c(-c6ccoc6)ccnc5[nH]4)c3n2)c1 | 298 | 26 | 100 | – | – | 64.2
29 | c1cncc(-c2ccc3[nH]nc(-c4nc5c(-c6ccoc6)cncc5[nH]4)c3c2)c1 | 45.4 | 3 | 100 | – | – | 149

More lines, main results first:

Row | EC50 [2] [nM] | EC50 [3] [nM] | EC50 [5] [nM] | EC50 [6] [nM] | Structure (SMILES) | Emax at 0.3 µM [1] [%] | Emax at 0.1 µM [4] [%]
30 | 3870 | 10 | – | – | CN1CCN(c2ccnc3[nH]c(-c4n[nH]c5ccc(-c6cncc(NC(=O)CC(C)(C)C)c6)nc45)cc23)CC1 | 30.3 | –
31 | 52 | 2 | – | – | CN1CCN(c2cncc3[nH]c(-c4n[nH]c5ccc(-c6cccnc6)cc45)nc23)CC1 | 80.6 | –
32 | 464 | – | – | 10.8 | CC(C)OCCCNC(=O)c1n[nH]c2ccc(-c3cccnc3)cc12 | – | 92.5
33 | 51.8 | – | 50 | 3000 | O=C1CCc2cccc(c2)-c2cncc3[nH]c(nc23)-c2n[nH]c3ccc(cc23)-c2cncc(c2)N1 | – | 225
34 | > 10000 | 15 | 100 | – | CN1CCN(c2cncc3[nH]c(-c4n[nH]c5ccc(-c6cncc(NC(=O)CC7CCNCC7)c6)cc45)cc23)CC1 | – | 289
35 | > 10000 | 22 | 10 | – | Cc1cn(-c2ccnc3[nH]c(-c4n[nH]c5ccc(-c6cncc(NC(=O)C(C)(C)C)c6)nc45)nc23)cn1 | – | 70.2
36 | 375 | 20 | 100 | – | Fc1ccccc1-c1cncc2[nH]c(-c3n[nH]c4ncc(-c5cn[nH]c5)cc34)cc12 | – | 51.1
37 | > 10000 | 20 | 300 | – | Cc1cn(-c2ccnc3[nH]c(-c4n[nH]c5ccc(-c6cncc(NC(=O)C7CCC7)c6)nc45)nc23)cn1 | – | 69.1
38 | 1170 | 7 | 100 | – | CN1CCN(c2ccnc3[nH]c(-c4n[nH]c5ccc(-c6cncc(N)c6)cc45)cc23)CC1 | – | 50.2
39 | 12.5 | 5 | 100 | – | Cc1ncc(-c2cnc3[nH]nc(-c4nc5c(-c6cccc(F)c6)nccc5[nH]4)c3c2)n1C | – | 152
40 | 10 | 76 | 100 | – | CCC(=O)Nc1cncc(-c2cnc3[nH]nc(-c4nc5c(-c6ccsc6)cccc5[nH]4)c3c2)c1 | – | 167
41 | 1890 | 3 | 10 | – | CC(C)(C)CC(=O)Nc1cncc(-c2cc3c(-c4cc5cnccc5[nH]4)n[nH]c3cn2)c1 | – | 58.8
42 | 310 | 1 | 100 | 1.1 | c1cncc(-c2ccc3[nH]nc(-c4cc5c(-c6cccnc6)cncc5[nH]4)c3c2)c1 | – | 58.2
43 | 1750 | 14 | 10 | – | CC(C)Nc1cncc(-c2ccc3[nH]nc(-c4nc5c(-c6cccnc6)ccnc5[nH]4)c3n2)c1 | – | 114
44 | 330 | 34 | 100 | – | O=C(Nc1cncc(-c2cc3c(-c4cc5c(-c6cccnc6)cccc5[nH]4)n[nH]c3cn2)c1)C1CC1 | – | 308
45 | 658 | 11 | 100 | – | Nc1cncc(-c2ccc3[nH]nc(-c4cc5c(-c6ccncc6)nccc5[nH]4)c3c2)c1 | – | 76.8
46 | 685 | 4 | 100 | – | c1cc2[nH]c(-c3n[nH]c4ccc(-c5cncc(CN6CCCCC6)c5)cc34)cc2cn1 | – | 122
47 | 572 | 40 | 100 | – | CCCCC(=O)Nc1cncc(-c2ccc3[nH]nc(-c4cc5c(N6CCCCC6)cccc5[nH]4)c3n2)c1 | – | 68.6
48 | > 10000 | 21 | 100 | – | CCNCc1cncc(-c2ccc3[nH]nc(-c4cc5c(-c6cc(F)cc(CNS(C)(=O)=O)c6)cncc5[nH]4)c3c2)c1 | – | 58
49 | 10.1 | 12 | 100 | – | Cc1ccc(-c2cncc3[nH]c(-c4n[nH]c5cnc(-c6cncc(NC(=O)C7CCC7)c6)cc45)nc23)s1 | – | 231
50 | 250 | 53 | 30 | – | Cn1cc(-c2ccc3[nH]nc(-c4cc5c(-c6cccnc6)cncc5[nH]4)c3c2)cn1 | – | 65.2

Reference: ChEMBL document CHEMBL4739717, “Methods of treating cartilage disorders through inhibition of clk and dyrk” (2020)
